According to patent publication US5681817A, “Treatment of ovarian estrogen dependent conditions” (The Medical College of Hampton Roads, priority 1994, dated 1997):
Entries after “also recorded” stand apart in the source; their conditions may differ.

Columns and labels:
[1] = test system: female cynomolgus monkeys; test: Ovulation and serum estradiol/progesterone by RIA in monkeys with induced endometriosis; type: in vivo, cynomolgus monkeys (Macaca facularis); settings: for mean tonic serum estradiol level: RIA, FIG. 1, control 40.6±43; for suppression of ovulation: treatment alone
Experimental: For the purposes of this study, the gonadotropin releasing hormone agonist selected was leuprolide acetate, the anti-progestin selected was RU 486 and these were administered to female cynomolgus monkeys, which are recognized to be a highly desirable model for human research.
Thirty-six adult female cynomolgus monkeys (Macaca facularis) having regular menstrual cycles were housed in individual cages which had food and water available ad librium.
(§1) Using anesthesia (ketamine 20 mg/kg im, xylazine, 1 mg/kg) on day 3 of the menstrual cycle, a diagnostic laparoscopy was performed to rule out pelvic adhesive disease or extant endometriosis. Monkeys with observable pelvic adhesions were excluded. Blood was collected on menstrual days 8-14 via venipuncture (ketamine 10 mg/kg im), and serum assayed for estradiol-17β by RIA. Laparotomy (ketamine 20 mg/kg, xylazine 1 mg/kg) was performed 3-5 days after a clearly defined pre-ovulatory estradiol peak. A 2 cm fundal hysterotomy was performed and approximately 100 mg of endometrium removed by curettage and minced in sterile 0.9% saline. The uterine incision was closed with 4-0 vicryl suture. The minced endometrial tissue was injected sub-peritoneally into five sites, namely, the left and right vesicouterine fold, right and left broad ligaments, and the cul-de-sac.
(§2) Primates were divided equally into four treatment groups (N=8). Group 1 was given monthly injections of the gonadotropin releasing hormone agonist, in an amount of 80 μg/kg im on menstrual day 21 of the second laparotomy cycle. This was continued at 28 day intervals for a total of 3 injections, at which time weekly injections of the antiprogestin RU 486 began, (5 mg/kg im, in oil, initially, then 2 mg/kg/week). RU 486 was continued for a period of 24 weeks.
(§3) Group 2 was given weekly im injections of RU 486 alone (5 mg/kg initially, then 2 mg/kg/week) beginning on menstrual day 1 of the cycle after the endometriosis was confirmed. This was continued for a treatment period of 36 weeks. Group 3 was given doses of the GnRH analog alone for 36 weeks. Group 4 was a control and received vehicle, 0.5 ml of normal saline im, weekly for 36 weeks.
Using ketamine anesthesia, blood was collected on alternate days in all groups for 28 days after the initial treatments following confirmation of active endometriosis. The serum was frozen for later analysis. Thereafter, blood was collected weekly. Blood draws continued until spontaneous menses resumed, or two months after the conclusion of injections, whichever came first. Serum was frozen, labelled, and stored for subsequent radioimmunoassay. Estradiol and progesterone were assayed using RIA (ICN Biomedical, Los Angeles, Calif.).

[2] = test system: peritoneal endometriosis (ectopic endometrial implants); test: Area of ectopic endometrium on peritoneal surfaces at staging laparotomy; type: in vivo, cynomolgus monkeys (Macaca facularis); settings: for area of ectopic endometrium on peritoneal surfaces / size of endometrial implants: post-treatment vs pre-treatment and vs control, FIG. 2, Wilcoxon p<0.05; for mean area of peritoneal disease after switch from GnRH analog to RU 486: Group 1, RU 486 for three months after the course of GnRH analog
Experimental: as §1
During the subsequent menstrual cycle, laparotomy was performed 3 to 5 days after the mid-cycle estradiol surge. The presence of ectopic endometrial tissue and the extent of adhesions were noted, with peritoneal implants carefully measured. Photographs of all lesions were taken and assigned a random number for later histological staging of the endometriosis by an independent observer. Biopsies were taken from representative lesions, and the tissue fixed in 10% formalin for histologic examination after hematoxylin and eosin staining.
as §2, §3
After daily injections began, a staging laparotomy was performed every 12 weeks until the end of therapy to assess the progression or regression of the disease.

[3] = test system: endometrial and vaginal epithelium; test: Histological assessment of endometrium and vaginal epithelium (hematoxylin and eosin); type: in vivo, cynomolgus monkeys (Macaca facularis); settings: for ENDOMETRIUM MENTRUAL PHASE / ENDOMETRIUM THICKNESS / VAGINAL EPITHELIUM AND KERATIN: histology; for ENDOMETRIUM MENTRUAL PHASE / ENDOMETRIUM THICKNESS: hematoxylin and eosin; for VAGINAL EPITHELIUM AND KERATIN: thickness
Experimental: Primates were divided equally into four treatment groups (N=8). Group 1 was given monthly injections of the gonadotropin releasing hormone agonist, in an amount of 80 μg/kg im on menstrual day 21 of the second laparotomy cycle. This was continued at 28 day intervals for a total of 3 injections, at which time weekly injections of the antiprogestin RU 486 began, (5 mg/kg im, in oil, initially, then 2 mg/kg/week). RU 486 was continued for a period of 24 weeks. Group 2 was given weekly im injections of RU 486 alone (5 mg/kg initially, then 2 mg/kg/week) beginning on menstrual day 1 of the cycle after the endometriosis was confirmed. This was continued for a treatment period of 36 weeks. Group 3 was given doses of the GnRH analog alone for 36 weeks. Group 4 was a control and received vehicle, 0.5 ml of normal saline im, weekly for 36 weeks. Vaginal epithelium was obtained at the time of each surgery using Kevorkian biopsy forceps taken from the lateral vaginal side of the upper two-thirds of the vagina. At the time of each laparotomy, a small repeat hysterotomy was performed for the purpose of endometrial sampling for histologic examination.

[4] = test system: bone mineral density of the lumbar spine; test: Dual X-ray absorptiometry bone mineral density of the lumbar spine; type: in vivo, cynomolgus monkeys (Macaca facularis); settings: for change in bone density: after three months of treatment, group level; for bone density in fast bone losers: group 1 animals losing bone on GnRH analog (e.g. monkey 2190, FIG. 3), three months GnRH analog, then three months antiprogestin
Experimental: as §2, §3
Urine was collected at the time of blood sampling. The first sample was taken at the time of the first laparotomy and the second sample was taken at the time of the first injection with subsequent samples drawn every four weeks from the time of the second urine sample. Dual X-ray absorptiometry (DXA, Norland) was used to measure the bone mineral density of the lumbar spine. Primates were anesthetized with ketamine and restrained to minimize motion artifact. DXA was performed before injections began and at three month intervals until completion of the study.

[5] = test system: endometriosis; settings: cited from earlier work
[6] = test system: uterine leiomyomata; settings: cited from earlier work

CCNC(=O)[C@@H]1CCCN1C(=O)[C@H](CCCNC(=N)N)NC(=O)[C@H](CC(C)C)NC(=O)[C@@H](CC(C)C)NC(=O)[C@H](Cc1ccc(O)cc1)NC(=O)[C@H](CO)NC(=O)[C@H](Cc1c[nH]c2ccccc12)NC(=O)[C@H](Cc1c[nH]cn1)NC(=O)[C@@H]1CCC(=O)N1 [GnRH analog, leuprolide acetate]
mean tonic serum estradiol level [1]: 24.2 ± 17 pg/mL | suppression of ovulation [1]: suppression of ovulation | area of ectopic endometrium on peritoneal surfaces / size of endometrial implants [2]: unequivocal limiting impact | ENDOMETRIUM MENTRUAL PHASE [3]: weakly proliferative | ENDOMETRIUM THICKNESS [3]: uniformly thin | ENDOMETRIUM THICKNESS ([3]; listed as ANALOG ONLY): THIN | VAGINAL EPITHELIUM AND KERATIN [3]: THIN | change in bone density [4]: no change | bone density in fast bone losers [4]: significant degree of bone loss

CC#C[C@]1(O)CC[C@H]2[C@@H]3CCC4=CC(=O)CCC4=C3[C@@H](c3ccc(N(C)C)cc3)C[C@@]21C [RU 486, mifepristone]
mean tonic serum estradiol level [1]: 57.8 ± 34.6 pg/mL | suppression of ovulation [1]: suppression of ovulation | mean area of peritoneal disease after switch from GnRH analog to RU 486 [2]: remained the unchanged | mean area of peritoneal disease after switch from GnRH analog to RU 486 ([2]; listed as antiprogestin): able to sustain the reduced surface of peritoneal endometriosis | area of ectopic endometrium on peritoneal surfaces / size of endometrial implants [2]: unequivocal limiting impact | vaginal atrophy ([3]; cynomolgus monkey, in vivo): not noted | ENDOMETRIUM MENTRUAL PHASE [3]: interval phase | ENDOMETRIUM THICKNESS ([3]; listed as antiprogestin): thinner than in control monkeys; also recorded: remained moderately thin | VAGINAL EPITHELIUM AND KERATIN ([3]; listed as antiprogestin): greater in the antiprogestin group than in the GnRH analog groups; also recorded: thicker | bone density, PRE-TREATMENT (MEAN ± SD) ([4]; DXA lumbar spine, baseline before injections): 0.501 ± 0.029 | bone density, AFTER 3 MONTHS ([4]; DXA lumbar spine, mean ± SD, in group 1 the first 3 months are GnRH analog): 0.541 ± 0.033 | change in bone density [4]: marginally significant increase in bone density | bone density in fast bone losers [4]: counteracted this loss; also recorded: returned to baseline

C#C[C@]1(O)CC[C@H]2[C@@H]3CCC4=Cc5oncc5C[C@]4(C)[C@H]3CC[C@@]21C [danazol, 17-α-pregna-2,4-dien-20-yno[2,3-d]-isoxazol-17-ol]
side effects ([5]; in vivo): many androgenic side effects | efficacy in treatment of endometriosis ([5]; producing a hypoestrogenic milieu): effective medication for the treatment of endometriosis

CC(=O)O[C@]1(C(C)=O)CC[C@H]2[C@@H]3C[C@H](C)C4=CC(=O)CC[C@]4(C)[C@H]3CC[C@@]21C [medoxyprogesterone acetate]
hot flashes and urinary calcium loss ([6]; add-back regimen with leuprolide): reduced | total uterine volume ([6]; add-back regimen with leuprolide, not back to baseline values): modest increase | effect on agonist-induced decrease of nonmyoma volume ([6]; concomitant treatment with leuprolide): reverse the effectiveness
